We go through 7 compounds from article PMC5513871 (British Journal of Pharmacology, 2017).

For orientation: pIC50 means −log10 of the IC50, conventionally taken in molar units.

SMILES strings stand for the structures. pIC50: −log10 of the molar value. Read-outs that look alike come from different tables or passages of the source.

Data set [1] concerns normal dogs under anaesthesia. The note with it: 1 μmol/kg/min; ref Roza and Berman, 1971; cited from earlier work.
Data set [2] has as its system IKATP. The settings on record: read-out: IC50 IKATP; ref Filgueiras‐Rama et al., 2012; cited from earlier work.
Data set [3] relates to Langendorff‐perfused sheep heart. The note with it: ref Noujaim et al., 2011; cited from earlier work.
Data set [4] deals with IKACh. The note with it: read-out: IC50 IKACh; ref Filgueiras‐Rama et al., 2012; cited from earlier work.
Data set [5] concerns IK1. The settings on record: read-out: IC50 IK1; ref Filgueiras‐Rama et al., 2012; cited from earlier work.
The subject of data set [6] is AF goat model. The note with it: cited from earlier work.
In data set [7] the test system is cAVB dogs. Description: Proarrhythmia test. It is filed as in vivo, dog. The settings on record: cAVB dogs n = 9, paced 1 Hz; PA‐6 2.5 mg/kg/10 min, dofetilide 0.025 mg/kg/5 min.
Data set [8] deals with anaesthetized SR dogs. The settings on record: 4 mg/kg/40 min, at 40 min; ref Yokoyama et al. (2009); cited from earlier work.
[9] abbreviates: awake goats, 1 week of AF, ref Eijsbouts et al., 2006.
Setting [10] is: awake goats, 4 weeks of AF, ref Eijsbouts et al., 2006.
[11] abbreviates: awake goats, 8 weeks of AF, ref Eijsbouts et al., 2006.
Where [12] appears, read: awake goats, 16 weeks of AF, ref Eijsbouts et al., 2006.

In the case of `[Ba+2].[Cl-].[Cl-]` [BaCl2], the “Course of events upon infusion” value in data set [1] is “hypotension, flaccid paralysis of skeletal muscles, ventricular tachycardia and fibrillation”.
Turning to `CCN(CC)CCCC(C)Nc1ccnc2cc(Cl)ccc12` (stereo not shown) [chloroquine], the pIC50 is 6.29 in data set [2], 6.42 in data set [4] and 6.16 in data set [5]. Also, the “Concentration terminating cholinergically induced AF” value in data set [3] was 10 µM.
Consider `c1ccc(C2(c3ccccc3)CC2C2=NCCN2)cc1` (stereo not shown) [cibenzoline], for which the Cardioversion rate in data set [6] (3 to 4 weeks of pacing induced persistent AF, ref Eijsbouts et al., 2006) is 78%; in data set [6] (setting [9]), 80%; in data set [6] (setting [10]), 78%; in data set [6] (setting [11]) it was 67%; in data set [6] (setting [12]) it was 63%.
Consider `CN(CCOc1ccc(NS(C)(=O)=O)cc1)CCc1ccc(NS(C)(=O)=O)cc1` [dofetilide], for which, in data set [7], the LVMAPD80 amounted to 400 ± 64 ms, the QTc is reported as 600 ± 33 ms and the STV stood at 1.82 ± 0.88 ms.
As for `CC(C)NC[C@@H](O)c1ccc(NS(C)(=O)=O)cc1` [d‐Sotalol], the Cardioversion rate in data set [6] (3 to 4 weeks of pacing induced persistent AF, ref Wijffels et al., 1999) is 92%.
As for `O=C(NCC1CCCCN1)c1cc(OCC(F)(F)F)ccc1OCC(F)(F)F` (stereo not shown) [flecainide], the Cardioversion rate in data set [6] (setting [9]) is reported as 60%; in data set [6] (setting [10]), 33%; in data set [6] (setting [11]), 33%; in data set [6] (setting [12]) it was 17%.
`N=C(N)c1ccc(OCCCCCOc2ccc(C(=N)N)cc2)cc1` [pentamidine]: the QTc increase result in data set [8] is “approx. 8%”.
